In patent publication US10100011B2, “Pentadienoyl piperidine derivative and use thereof” (Industry-Academic Cooperation Foundation, Yonsei University, priority 2014, dated 2018):

How the values were obtained:
Assay type in all cases: in vivo, mouse
[1] = tested on: C57BL/6J mice; assay: Plasma lipid concentrations in mice fed high-fat diet; settings: about 0.05% compound in high-fat diet, 10 weeks
Protocol: (§1) An obesity induction diet used in this experiment was a high-fat diet (HFD: 40% fat calories, 17 g of lard+3% corn oil/100 g diet), and the compositions of diets including the LJ-2501, LJ-2488, LJ-2495, LJ-2496 compounds were identical to that of HFD, except that each of the compounds was included in an amount of about 0.05% (Table 2). As a control drug, an anti-obesity drug, sibutramine (Sibut), was added in an amount of about 0.01% to the high-fat diet and a normal diet group (Chow) was fed with commercial rodent chow.
(§2) 5-week old 40 male C57BL/6J mice (Orient Bio., Korea) were fed with hard feed and accommodated in a laboratory environment for one week. Subsequently, in accordance with a randomized block method, the mice were randomly grouped into a normal diet group, a high-fat diet control group, two experimental substance groups, and […] and raised for a total of 10 weeks (n=8/group). Diets were supplied with water between 10 am and 11 am every day. An intake amount was measured every day and the body weights of the mice were measured every week. To prevent temporal weight change due to feed intake, feedboxes were removed and, after two hours, the body weights were measured. The experimental animals were fasted for 12 hours or more and then anesthetized with diethyl ether, followed by collecting blood, liver, and visceral adipose tissues (epididymal fat, perirenal fat, mesenteric fat, and retroperitoneal fat). The collected samples were washed with 0.1 M phosphate buffered saline (pH 7.4) and then weighed. Blood samples collected from abdominal aortas were centrifuged at 1000×g for 15 minutes, thereby separating plasma.
Using the aforementioned experimental animals raised for 10 weeks, the concentrations of a total of cholesterol, neutral fat, and glucose in plasma and lipid components in liver tissue were measured as follows. The concentrations of a total of cholesterol, neutral fat, and free fatty acid in plasma were respectively measured twice using a commercial measurement kit (Bio Clinical System).

[2] = tested on: C57BL/6J mice; assay: Inflammatory cytokine concentrations in blood of mice fed high-fat diet (ELISA); settings: about 0.05% compound in high-fat diet, 10 weeks
Protocol: as §1, §2
The concentrations of TNFα, MCP-1, IL-6, leptin, and insulin in plasma were measured according to an ELISA method using the Mouse Adipokine Magnetic Bead Panel kit (MADKMAG-71K, EMD Millipore Corporation, Mass., USA).

[3] = tested on: C57BL/6J mice; assay: Body weight and visceral fat weight in mice fed high-fat diet; settings: about 0.05% compound in high-fat diet, 10 weeks
Protocol: as §1, §2

[4] = tested on: genes related to adipose tissue generation and thermogenesis in visceral fat tissue; assay: Gene (RT-PCR) and protein (Western blotting) expression in visceral (epididymal) fat tissue of mice; settings: compound in high-fat diet
Protocol: 1 ml of a TRIzol solution per 0.1 g of epididymal fat tissue was added to the pulverized tissue, followed by centrifuging at 4° C. and 12,000×g for 10 minutes. A supernatant was transferred into a new tube and then 200 μl of chloroform was added thereto, followed by vortexing. This process was repeated twice and then a supernatant was transferred into a new tube. Subsequently, isopropanol and the supernatant were mixed in a ratio of 1:1 and strongly shook ten times, followed by standing at room temperature for 10 minutes. Subsequently, centrifugation was carried out at 12,000×g and 4° C. for 10 minutes, followed by removing a supernatant and adding 1 ml of 70% ethanol to the remaining precipitate. Subsequently, centrifugation was carried out at 7,500×g and 4° C. for five minutes. Ethanol was removed and then the tube containing an RNA precipitate was dried at room temperature for five minutes. The dried RNA pellet was dissolved in nuclease free water. The concentrations of the extracted RNA samples were measured at wavelengths of 260 nm and 280 nm by means of a UV/VIS spectrophotometer (Beckman Coulter, DU730). In addition, the extracted RNA samples were electrophoresed on an agarose gel to confirm the quality of the RNA samples.
The RNA samples extracted from epididymal fat tissue were subjected to reverse transcription using oligo dT primers and the Superscript reverse transcription enzyme (GIBCO BRL, Gaithersburg, Md., USA), thereby synthesizing cDNAs. Each of the synthesized cDNAs was used as a template and 5′ and 3′ flanking sequences of cDNA of each of genes to be amplified were used as primers, thereby performing PCR. 1 μl of each of amplified PCR products was electrophoresed on a 1% agarose gel and a DNA band was observed.
A predetermined amount of visceral fat or liver tissue was homogenized with liquid nitrogen and a lysis buffer in a mortar and then centrifuged at 13,000 rpm and 4° C. for 20 minutes. Subsequently, a middle layer was collected and subjected to protein quantification according to the Bradford method. 50 μg of a protein was electrophoresed on an SDS polyacryamide gel and then electro-blotted on hyperfilm PVDF. A reaction was carried out using a corresponding antibody and detection was performed using ECL.

[5] = tested on: C57BL/6J mice; assay: Liver weight, liver tissue lipid concentrations and hepatic function indicators in blood of mice fed high-fat diet; settings: about 0.05% compound in high-fat diet, 10 weeks
Protocol: as §1, §2
Lipid components were extracted from liver tissue in accordance with the method by Folch, et al. (Folch J, Lees M, Sloane Stanley G H. A simple method for the isolation and purification of total lipids from animal tissues. J Biol Chem. 1957; 226:497-509). In particular, 1 mL of distilled water was added to 0.25 g of a liver tissue sample and then homogenized by means of a Polytron homogenizer (IKA-WERKE GmbH & Co., Ultra-Turrax, Staufen, Germany). To the homogenized solution, 5 mL of a solution including chloroform and methanol (mixed in a ratio of 2:1, v/v) was added, followed by uniformly mixing. Subsequently, centrifugation was carried out at 1000×g for 10 minutes and a lower solution was separated. To a formed supernatant, 2 mL of a mixture including chloroform and methanol (mixed in a ratio of 2:1, v/v) was added, followed by repeating the same procedure. As a result, lipid components were completely isolated from the liver samples. To an obtained lower solution, 3 mL of a mixture including chloroform, methanol, and 0.05% CaCl2 (mixed in a ratio of 3:48:47, v/v/v) was added, followed by mixing for one minute. Subsequently, centrifugation was carried out at 1000×g for 10 minutes. A final lower solution was collected and completely dried with a nitrogen gas. Subsequently, the dried lipid was dissolved in 1 mL of methanol and used for lipid component analysis. The concentrations of neutral fat and cholesterol in the lipid extracts extracted from the liver tissue were measured using the same commercial lipid analysis kit (Bio Clinical System) as that used in the plasma analysis.
Glutamate oxaloacetate transferase (GOT) and glutamate pyruvate transferase (GPT) activity in serum during fasting were measured by means of an automatic biochemical analyzer (Express Plus, Chiron Diagnostics Co., USA). A kit for analysis was purchased from Bayer (Tarrytown, N.Y., USA).

[6] = RT-PCR, levels similar to Chow group

## CSc1ccc(/C=C/C=C/C(=O)N2CCCCC2)cc1 [LJ-2501, (2E,4E)-5-(4-(methylthio)phenyl)-1-(piperine-1-yl)penta-2,4-diene-1-one]
[1]
  plasma LDL+VLDL cholesterol concentration, reduction compared to HFD: 27%
  plasma free fatty acid concentration, reduction compared to HFD: 69%
  plasma neutral fat concentration, reduction compared to HFD: 34%
  plasma total cholesterol concentration, reduction compared to HFD: 35%
[2]
  blood IL-6 concentration, reduction compared to HFD: 38%
  blood MCP-1 concentration, reduction compared to HFD: 22%
  blood TNF-α concentration, reduction compared to HFD: 25%
  blood leptin concentration, reduction compared to HFD: 25%
[3]
  cumulative weight gain, reduction compared to high-fat diet control group (HFD): 60%
  diet intake amount compared to HFD control group: not greatly different
  epididymal fat, perirenal fat, mesenteric fat and retroperitoneal fat weights compared to HFD (in words): significant reduction
  total weight of visceral fats (four fat types), reduction compared to HFD: 72%
  visceral fat amount in abdominal section image compared to HFD (naked eye): remarkably reduced
[4]; RT-PCR
  expression levels of NRF-1, COX2 and TFAM in visceral fat tissue: increasing
[4]; [6]
  gene expression levels of PGC-1α, SIRT1 and UCP1 in visceral adipose tissue compared to HFD: increased
  mRNA expression of C/EBPα, PPARγ2 and target genes (CD36, FAS, leptin) in epididymal fat tissue compared to HFD: reduced
[4]; Western blotting
  phosphorylation level of CREB proteins in visceral adipose tissue: increased
[5]
  hepatic function indexes (ALT, AST) in the blood, reduction compared to HFD: 60-65%
  liver tissue cholesterol concentration, reduction compared to HFD: 53%
  liver tissue free fatty acid concentration, reduction compared to HFD: 77%
  liver tissue neutral fat concentration, reduction compared to HFD: 35%
  liver weight, reduction compared to high-fat diet control group: 41%
  size of the liver compared to HFD group (photograph): relatively small
